Where two headings read alike, the source gives them in different places.
Tests used:
[1] = tested on: patients with cardiac insufficiency; conditions: for patients of functional class I, day 30 / patients of functional class II, day 30 / patients of functional class III, day 30 / patients of functional class IV, day 30 / patients of functional class I, day 60 / patients of functional class II, day 60 / patients of functional class III, day 60 / patients of functional class IV, day 60 / patients of functional class I, day 90 / patients of functional class II, day 90 / patients of functional class III, day 90 / patients of functional class IV, day 90: 100 mg twice per day with standard therapy; for patients of functional class I, day 30 / patients of functional class II, day 30 / patients of functional class III, day 30 / patients of functional class IV, day 30: after 30 days; for patients of functional class I, day 60 / patients of functional class II, day 60 / patients of functional class III, day 60 / patients of functional class IV, day 60: after 60 days; for patients of functional class I, day 90 / patients of functional class II, day 90 / patients of functional class III, day 90 / patients of functional class IV, day 90: after 90 days; for patients of functional class I, day 0 / patients of functional class II, day 0 / patients of functional class III, day 0 / patients of functional class IV, day 0: with standard therapy, before treatment
Protocol: The test for cardiotonic activity of product samples was performed by measuring the dynamics of alteration of the functional class of cardiac failure. The functional class can be determined quite accurately by analyzing the everyday life activities according to a specific activity scale. The authors of this technique suppose that the criteria developed by NYHA (New York Heart Association) cannot provide accurate determination of functional class, since widely used terms, such as “everyday physical activity”, “sub-everyday activity” are not specific. On the basis of multiple tests, in which patients exercised on a treadmill, the authors calculated a scale of metabolic expenses for each kind of life activity (see Goldman L., Hashimoto B., Cook F. et al., Comparative reproducibility and validity of systems for assessing cardiovascular functional class: advantages of a new specific activity scale (1981) Circulation 64 (6):1227-34). This inquiry is designed to be used by medical personnel, interviewing a patient. After calculating the sum of possible energy expenses, the functional class of the patient is determined according to the summary criteria of the specific activity scale (Table 6).
In the tests, the patient groups were formed so that the people of the same functional class were equally distributed among different groups. Severe patients (of IV functional class; those having oncological diseases or suffered myocardial infarction/stroke to the brain 60 days or less before) were not admitted to the tests. The distribution of patients among groups was governed by a random number generator. The tests were carried out by the following protocol. Each patient took 100 mg of the preparation twice per day (in the morning and after lunch) during 3 months—against the background of a standard therapy administered by a physician. […] All the samples and placebo were encoded before sending into the clinic, so none of those involved into the tests (patients, physicians, medical personnel and the manager of tests) was aware of the nature of samples.
The functional class of patients was determined several times: at the beginning of tests (before the formation of test groups) and after 30, 60 and 90 days of treatment with the test samples. The estimation was performed on the basis of the activity scale (Table 7).

Wistar rat males = conditions: for Eosinophils, 6 h after / Lymphocytes, 6 h after / Number of leukocytes in 1 μl of blood, 6 h after / Segmentated cells, 6 h after: 6 h after immobilization; for Eosinophils, 6 h after / Lymphocytes, 6 h after / Number of leukocytes in 1 μl of blood, 6 h after / Segmentated cells, 6 h after / Eosinophils, before / Lymphocytes, before / Number of leukocytes in 1 μl of blood, before / Segmentated cells, before: 1.5 ml of 1% succinic acid perorally 10 min prior; for Eosinophils, before / Lymphocytes, before / Number of leukocytes in 1 μl of blood, before / Segmentated cells, before: at the moment of immobilization
Protocol: Examples, illustrating the method invented, are presented below. […] SA is tested on rats endured an immobilization stress; the parameter tested is lymphocytic composition of blood, which is determined before and after stress in a blood smear taken from the caudal vein. […] A detailed description of the testing technique is given in Example 13.
The animals were fixed while lying flat on their back, with their legs secured. […] Blood was taken from the caudal vein: 10 μl for counting blood corpuscles and 20 μl for preparing a smear with its subsequent staining by Romanovsky-Giemsa).
First group: 10 min prior immobilization, the animals were injected (perorally, with the help of a stomach pump) with 1.5 ml of 1% starch solution. […] Blood was taken from the caudal vein at the moment of immobilization and 6 hours later, and stained blood smears were prepared to calculate the leukogram.

[2] = tested on: erythroid cells isolated from the bone marrow of laboratory mice males; conditions: feed with succinic acid 20 mg/kg body wt., not irradiated, norm 5.0±1.0
Protocol: The test for genotoxicity was performed on young laboratory mice males (18-20 g; 6 animals in each group). […] The control animals were given water.

white rat females = conditions: in vivo; for Total died: 14 days
[3] = tested on: erythroid cells isolated from the bone marrow of gamma-irradiated laboratory mice males; test: Radioprotective properties (micronucleus test after gamma irradiation); conditions: for Number of micronuclei per 2000 cells (radioprotective properties): mice irradiated with gamma rays 1.3 Gy, then fed 48 h succinic acid 20 mg/kg body wt., critical value 16±2
[4] = compared with “natural” SA

Structure (SMILES)	patients of functional class I, day 30 [1]	patients of functional class II, day 30 [1]	patients of functional class III, day 30 [1]	patients of functional class IV, day 30 [1]	patients of functional class I, day 60 [1]	patients of functional class II, day 60 [1]	patients of functional class III, day 60 [1]	patients of functional class IV, day 60 [1]	patients of functional class I, day 90 [1]	patients of functional class II, day 90 [1]	patients of functional class III, day 90 [1]	patients of functional class IV, day 90 [1]	patients of functional class I, day 0 ([1]; 100 mg twice per day, 3 months)	patients of functional class II, day 0 ([1]; 100 mg twice per day, 3 months)	patients of functional class III, day 0 ([1]; 100 mg twice per day, 3 months)	patients of functional class IV, day 0 ([1]; 100 mg twice per day, 3 months)	Number of micronuclei per 2000 cells (genotoxicity) [2]	died, 13 day (white rat females; female, 5000 mg/kg)	Total died (white rat females; female, 5000 mg/kg)	Number of micronuclei per 2000 cells (radioprotective properties) [3]	also measured
O=C(O)CCC(=O)O [Example 7, succinic acid]	9	6	5	0	13	5	2	0	15	4	1	0	8	7	5	0	5.0 ± 1.0	2	4	11.5 ± 1.8	Eosinophils, 6 h after (Wistar rat males; listed as Ex. 7): 1.5 ± 4%; Lymphocytes, 6 h after (Wistar rat males; listed as Ex. 7): 73 ± 6%; Number of leukocytes in 1 μl of blood, 6 h after (Wistar rat males; listed as Ex. 7): 7200; Segmentated cells, 6 h after (Wistar rat males; listed as Ex. 7): 26 ± 3%; Eosinophils, before (Wistar rat males; listed as Ex. 7): 2 ± 1%; Lymphocytes, before (Wistar rat males; listed as Ex. 7): 75 ± 7%; Number of leukocytes in 1 μl of blood, before (Wistar rat males; listed as Ex. 7): 6000; Segmentated cells, before (Wistar rat males; listed as Ex. 7): 23 ± 3%; died, 14 day (white rat females; female, 5000 mg/kg): 2
O=C(O)CCC(=O)O [Example 2, succinic acid, reference compound]	8	7	5	0	8	8	4	0	8	8	4	0	8	7	5	0	5.5 ± 1.0	–	0	22.5 ± 1.0	cardiotonic properties / dynamics of functional class, conclusion in words ([1]; 100 mg twice per day, 3 months): slight positive dynamics; adaptogenic properties, conclusion in words (Wistar rat males; 6-hour immobilization stress, Wistar rats): slight adaptogenic properties; Eosinophils, 6 h after (Wistar rat males; listed as Ex. 2): 0%; Lymphocytes, 6 h after (Wistar rat males; listed as Ex. 2): 70 ± 5%; Number of leukocytes in 1 μl of blood, 6 h after (Wistar rat males; listed as Ex. 2): 7700; Segmentated cells, 6 h after (Wistar rat males; listed as Ex. 2): 30 ± 3%; Eosinophils, before (Wistar rat males; listed as Ex. 2): 2 ± 2%; Lymphocytes, before (Wistar rat males; listed as Ex. 2): 76 ± 4%; Number of leukocytes in 1 μl of blood, before (Wistar rat males; listed as Ex. 2): 5700; Segmentated cells, before (Wistar rat males; listed as Ex. 2): 21 ± 4%; biological activity, overall conclusion in words [4]: do not possess high biological activity; animals died, extra test with doubled dose (white rat females; 10000 mg/kg): Not a single animal died; radioprotective effect, conclusion in words ([3]; gamma rays 1.3 Gy, 20 mg/kg body wt., 48 h, 20 mg/kg): no evident radioprotective effect
O=C(O)CCC(=O)O [Example 5, succinic acid]	8	7	5	0	9	7	4	0	14	5	1	0	8	7	5	0	5.0 ± 1.0	2	3	12.0 ± 1.2	Eosinophils, 6 h after (Wistar rat males; listed as Ex. 5): 1.5 ± 8%; Lymphocytes, 6 h after (Wistar rat males; listed as Ex. 5): 75 ± 4%; Number of leukocytes in 1 μl of blood, 6 h after (Wistar rat males; listed as Ex. 5): 7200; Segmentated cells, 6 h after (Wistar rat males; listed as Ex. 5): 24 ± 3%; Eosinophils, before (Wistar rat males; listed as Ex. 5): 2 ± 6%; Lymphocytes, before (Wistar rat males; listed as Ex. 5): 76 ± 5%; Number of leukocytes in 1 μl of blood, before (Wistar rat males; listed as Ex. 5): 6000; Segmentated cells, before (Wistar rat males; listed as Ex. 5): 22 ± 4%; died, 14 day (white rat females; female, 5000 mg/kg): 1
O=C(O)CCC(=O)O [Example 8, succinic acid]	10	6	4	0	11	6	3	0	14	5	1	0	8	7	5	0	5.0 ± 0.8	1	3	12.0 ± 1.5	Eosinophils, 6 h after (Wistar rat males; listed as Ex. 8): 1.5 ± 3%; Lymphocytes, 6 h after (Wistar rat males; listed as Ex. 8): 75 ± 4%; Number of leukocytes in 1 μl of blood, 6 h after (Wistar rat males; listed as Ex. 8): 7000; Segmentated cells, 6 h after (Wistar rat males; listed as Ex. 8): 24 ± 2%; Eosinophils, before (Wistar rat males; listed as Ex. 8): 2 ± 6%; Lymphocytes, before (Wistar rat males; listed as Ex. 8): 77 ± 5%; Number of leukocytes in 1 μl of blood, before (Wistar rat males; listed as Ex. 8): 5900; Segmentated cells, before (Wistar rat males; listed as Ex. 8): 21 ± 4%; died, 12 day (white rat females; female, 5000 mg/kg, 12 day): 1; died, 14 day (white rat females; female, 5000 mg/kg): 1
O=C(O)CCC(=O)O [Example 9, succinic acid]	10	6	4	0	11	6	3	0	14	5	1	0	8	7	5	0	5.0 ± 1.0	2	3	11.0 ± 1.6	Eosinophils, 6 h after (Wistar rat males; listed as Ex. 9): 1.5 ± 2%; Lymphocytes, 6 h after (Wistar rat males; listed as Ex. 9): 74 ± 6%; Number of leukocytes in 1 μl of blood, 6 h after (Wistar rat males; listed as Ex. 9): 7000; Segmentated cells, 6 h after (Wistar rat males; listed as Ex. 9): 25 ± 6%; Eosinophils, before (Wistar rat males; listed as Ex. 9): 2 ± 4%; Lymphocytes, before (Wistar rat males; listed as Ex. 9): 76 ± 6%; Number of leukocytes in 1 μl of blood, before (Wistar rat males; listed as Ex. 9): 5800; Segmentated cells, before (Wistar rat males; listed as Ex. 9): 22 ± 3%; died, 14 day (white rat females; female, 5000 mg/kg): 1
